From patent US8247377B2, “Non-steroidal glucocorticoid inhibitors and their use in treating inflammation, allergy and auto-immune conditions” (Glaxo Group Limited, priority 2006, dated 2012)

Legend:
glucocorticoid receptor = target: T1, glucocorticoid receptor (Homo sapiens, UniProt P04150); test: Glucocorticoid receptor binding assay (fluorescence polarisation); details: competition with Alexa 555 fluorescently-labelled dexamethasone derivative, full length glucocorticoid receptor; read-out: glucocorticoid binding pIC50 (converted)
T1 construct: a partially purified full length glucocorticoid receptor
T1 sequence (P04150 1-777): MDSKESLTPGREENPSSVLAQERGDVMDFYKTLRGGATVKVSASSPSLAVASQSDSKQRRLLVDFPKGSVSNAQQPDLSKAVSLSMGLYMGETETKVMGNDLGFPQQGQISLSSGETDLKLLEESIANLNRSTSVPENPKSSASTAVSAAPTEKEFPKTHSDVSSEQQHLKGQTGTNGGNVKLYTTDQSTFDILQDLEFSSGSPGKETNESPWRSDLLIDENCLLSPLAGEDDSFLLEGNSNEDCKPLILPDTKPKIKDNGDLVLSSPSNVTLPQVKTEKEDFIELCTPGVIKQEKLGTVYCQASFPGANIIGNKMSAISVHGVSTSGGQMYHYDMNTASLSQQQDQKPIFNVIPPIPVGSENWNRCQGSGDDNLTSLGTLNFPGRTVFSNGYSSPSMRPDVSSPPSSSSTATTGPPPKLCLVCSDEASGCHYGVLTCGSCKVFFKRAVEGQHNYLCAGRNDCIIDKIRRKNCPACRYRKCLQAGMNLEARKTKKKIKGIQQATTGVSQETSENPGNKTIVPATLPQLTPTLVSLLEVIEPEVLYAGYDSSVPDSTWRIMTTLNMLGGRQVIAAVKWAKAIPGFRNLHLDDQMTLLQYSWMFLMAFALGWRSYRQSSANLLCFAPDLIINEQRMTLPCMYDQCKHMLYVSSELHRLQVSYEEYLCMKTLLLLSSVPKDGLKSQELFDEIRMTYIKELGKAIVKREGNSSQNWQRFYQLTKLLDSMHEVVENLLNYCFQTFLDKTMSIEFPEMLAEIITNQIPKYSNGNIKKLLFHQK
Method in brief: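 Compounds in DMSO incubated with fluorescent dexamethasone and partially purified full-length GR plus stabilising buffer components, 2 hrs at room temperature in the dark. Displacement read as decrease in fluorescence polarisation; pIC50 estimated from dose-response curves.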

MMTV promoter = test: MMTV agonist assay in A549 MMTV cells; assay type: cell-based; details: Homo sapiens, A549, 6 h, >85% = full agonist, >20% and <85% = partial or efficacy selective agonist, read-out: average maximum asymptote in the MMTV agonist assay
Method in brief: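 A549 cells stably carrying an MMTV promoter-driven renilla luciferase reporter were exposed to compound for 6 h at 37 °C in DMEM with 10% FCS and 25 mM HEPES. Luminescence read after renilla substrate addition; pEC50 and maximum asymptote estimated from dose-response curves.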

progesterone receptor = target: T2, progesterone receptor (Homo sapiens, UniProt P06401); test: Assay for progesterone receptor activity (CV-1 cells, PRb-BacMam/MMTV-BacMam); assay type: cell-based; details: CV-1 cells transduced with PRb-BacMam and MMTV-BacMam; read-out: pEC50 progesterone receptor activity (converted)
T2 construct: expressed in transfected cells; host or cells: CV-1 cells transduced with PRb-BacMam and MMTV-BacMam
T2 sequence (P06401 1-933): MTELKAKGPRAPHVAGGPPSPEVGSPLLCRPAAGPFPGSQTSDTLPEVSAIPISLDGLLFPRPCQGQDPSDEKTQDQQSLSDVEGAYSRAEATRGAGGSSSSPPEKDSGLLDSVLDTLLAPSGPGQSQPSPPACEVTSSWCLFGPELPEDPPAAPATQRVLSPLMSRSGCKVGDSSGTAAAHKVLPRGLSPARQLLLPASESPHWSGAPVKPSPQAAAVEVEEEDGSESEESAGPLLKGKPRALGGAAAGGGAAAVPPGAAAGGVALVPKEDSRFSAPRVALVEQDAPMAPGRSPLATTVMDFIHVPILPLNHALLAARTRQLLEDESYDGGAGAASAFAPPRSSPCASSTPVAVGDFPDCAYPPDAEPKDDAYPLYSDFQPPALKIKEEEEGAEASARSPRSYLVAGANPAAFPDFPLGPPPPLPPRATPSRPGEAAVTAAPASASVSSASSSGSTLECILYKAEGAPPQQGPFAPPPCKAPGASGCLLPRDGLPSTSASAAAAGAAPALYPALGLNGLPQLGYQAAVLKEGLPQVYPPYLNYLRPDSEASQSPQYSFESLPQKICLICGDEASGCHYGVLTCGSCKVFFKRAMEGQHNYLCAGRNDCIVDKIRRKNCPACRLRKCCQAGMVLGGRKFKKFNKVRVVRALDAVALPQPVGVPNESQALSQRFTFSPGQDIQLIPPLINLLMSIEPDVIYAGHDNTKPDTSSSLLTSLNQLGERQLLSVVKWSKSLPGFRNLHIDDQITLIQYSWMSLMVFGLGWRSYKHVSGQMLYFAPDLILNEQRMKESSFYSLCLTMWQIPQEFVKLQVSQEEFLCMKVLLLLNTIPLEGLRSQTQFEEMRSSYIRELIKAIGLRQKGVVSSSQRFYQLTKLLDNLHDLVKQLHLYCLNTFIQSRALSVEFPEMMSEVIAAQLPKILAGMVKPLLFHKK
Method in brief: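 CV-1 cells co-transduced with PRb-BacMam and MMTV-BacMam (10% each), seeded onto compounds in DMEM with 10% serum. After 24 h, luminescence was read with Steadylite. pEC50 values were estimated from dose-response curves.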

SMILES | IC50 (glucocorticoid receptor) | Emax (MMTV promoter) | EC50 (progesterone receptor)
Nc1c(C(=O)NCC(O)(CNC(=O)c2c(Br)cccc2C(F)(F)F)C(F)(F)F)cnn1-c1ccc(F)cc1 (single isomer, unassigned) [Example 45 Enantiomer 1, 5-Amino-N-{2-[({[2-bromo-6-(trifluoromethyl)phenyl]carbonyl}amino)methyl]-3,3,3-trifluoro-2-hydroxypropyl}-1-(4-fluorophenyl)-1H-pyrazole-4-carboxamide] | ≤ 316 nM | 20 to 85% | > 1000 nM
CCN(CC(O)(CNC(=O)c1cnn(-c2ccc(F)cc2)c1N)C(F)(F)F)C(=O)c1c(OC(F)F)cccc1OC(F)F (racemic) [Example 26 (racemic), 5-amino-N-(2-{[({2,6-bis[(difluoromethyl)oxy]phenyl}carbonyl)(ethyl)amino]methyl}-3,3,3-trifluoro-2-hydroxypropyl)-1-(4-fluorophenyl)-1H-pyrazole-4-carboxamide] | ≤ 316 nM | > 85% | > 1000 nM
Nc1c(C(=O)NCC(O)(CN(CCF)C(=O)c2c(F)cccc2C(F)(F)F)C(F)(F)F)cnn1-c1ccc(F)cc1 (racemic) [Example 18 (racemic), 5-amino-1-(4-fluorophenyl)-N-{3,3,3-trifluoro-2-[((2-fluoroethyl){[2-fluoro-6-(trifluoromethyl)phenyl]carbonyl}amino)methyl]-2-hydroxypropyl}-1H-pyrazole-4-carboxamide] | ≤ 316 nM | > 85% | > 1000 nM
CCN(CC(O)(CNC(=O)c1cnn(-c2cc(F)ccc2F)c1N)C(F)(F)F)C(=O)c1c(F)cccc1F (racemic) [Example 36 (racemic), 5-amino-1-(2,5-difluorophenyl)-N-(2-{[[(2,6-difluorophenyl)carbonyl](ethyl)amino]methyl}-3,3,3-trifluoro-2-hydroxypropyl)-1H-pyrazole-4-carboxamide] | ≤ 316 nM | > 85% | > 1000 nM
CN(CC(O)(CNC(=O)c1cnn(-c2ccc(F)cc2)c1N)C(F)(F)F)C(=O)c1c(F)cccc1Cl (racemic) [Example 9 (racemic), 5-Amino-N-(2-{[[(2-chloro-6-fluorophenyl)carbonyl](methyl)amino]methyl}-3,3,3-trifluoro-2-hydroxypropyl)-1-(4-fluorophenyl)-1H-pyrazole-4-carboxamide] | ≤ 316 nM | > 85% | > 1000 nM
CN(CC(O)(CNC(=O)c1cnn(-c2ccc(F)cc2)c1N)C(F)(F)F)C(=O)c1c(F)cccc1C(F)(F)F (racemic) [Example 21 (racemic), 5-amino-1-(4-fluorophenyl)-N-(3,3,3-trifluoro-2-{[{[2-fluoro-6-(trifluoromethyl)phenyl]carbonyl}(methyl)amino]methyl}-2-hydroxypropyl)-1H-pyrazole-4-carboxamide] | ≤ 316 nM | > 85% | > 1000 nM
Nc1c(C(=O)NCC(O)(CNC(=O)c2c(C(F)F)cccc2C(F)F)C(F)(F)F)cnn1-c1ccc(F)cc1 (racemic) [Example 43 (racemic), 5-Amino-N-{2-[({[2,6-bis(difluoromethyl)phenyl]carbonyl}amino)methyl]-3,3,3-trifluoro-2-hydroxypropyl}-1-(4-fluorophenyl)-1H-pyrazole-4-carboxamide] | ≤ 316 nM | 20 to 85% | > 1000 nM
CCN(CC(O)(CNC(=O)c1cnn(-c2ccc(F)cc2)c1N)C(F)(F)F)C(=O)c1c(Cl)cccc1OC(F)F (racemic) [Example 25 (racemic), 5-amino-N-(2-{[({2-chloro-6-[(difluoromethyl)oxy]phenyl}carbonyl)(ethyl)amino]methyl}-3,3,3-trifluoro-2-hydroxypropyl)-1-(4-fluorophenyl)-1H-pyrazole-4-carboxamide] | ≤ 316 nM | > 85% | > 1000 nM
